This note sets out measurements from patent US11712481B2, “Lipid nanoparticle formulations” (Acuitas Therapeutics, Inc., priority 2016, dated 2023).

Structures are written as SMILES.

Data set [1] can be described thus: Particle size and polydispersity index by light scattering (Malvern Zetasizer/Nanosizer ZS). The data set is classed as physicochemical. The settings on record: LNP 47.5:10:40.7:1.8. The procedure: Cationic lipid(s), DSPC, cholesterol and PEG-lipid were solubilized in ethanol at a desired molar ratio (e.g., 50:0 to 10:28.5 to 38.5:1.5 to 1.7 or 47.5:10:40.8:1.7). Lipid nanoparticles (LNP) were prepared at a total lipid to mRNA weight ratio of approximately 10:1 to 30:1. The mRNA was diluted to 0.2 mg/mL in 10 to 50 mM citrate buffer, pH 4. Syringe pumps were used to mix the lipid solution (i.e., LNP components solubilized in ethanol) with the mRNA aqueous solution at a ratio of about 1:5 to 1:3 (vol/vol) with total flow rates above 15 mL/min. The ethanol was then removed and the external buffer replaced with PBS by dialysis. Finally, the lipid nanoparticles were filtered through a 0.2 μm pore sterile filter. Lipid nanoparticle particle size was 55-95 nm diameter, and in some instances approximately 70-90 nm as determined by quasi-elastic light scattering using a Malvern Zetasizer Nano ZS (Malvern, UK).
(§1) LNP's were formulated by an in-line mixing process as described in Example 1. These formulations were prepared such that the mRNA to cationic lipid ratio was held constant (N/P=6.3). The size and polydispersity index data were generated using Malvern Nanosizer ZS. The diameters given are intensity weighted means. Encapsulation was determined using a fluorescent intercalating dye based assay (Ribogreen). […]
(§2) The effect of the proportion of mRNA to total lipid was investigated for a particular standard set of lipid proportions across three representative cationic lipids. LNP's were formulated by an in-line mixing process as described in Example 1. The lipid proportions were held constant at 47.5:10:40.7:1.8 for the cationic lipid, DSPC, Cholesterol and PEG-lipid respectively. The mRNA to lipid ratios are described in terms of the N/P ratio where N represents the moles of cationic lipid and P represents the moles of phosphate present as part of the nucleic acid backbone. Ratios described in this way are independent of the size of the nucleic acid. The size and polydispersity index data were generated using Malvern Nanosizer ZS. The diameters given are intensity weighted means. Encapsulation was determined using a fluorescent intercalating dye based assay (Ribogreen).

Data set [2] in a line: Encapsulation by fluorescent intercalating dye based assay (Ribogreen). Type of data set: physicochemical. On the procedure: as §1, §2
In data set [3] the test system is Photinus pyralis (firefly) luciferase mRNA expression in liver. Description: Luciferase mRNA in vivo evaluation using LNP compositions, liver. The note with it: LNP 47.5:10:40.7:1.8, 1 mg/kg, mice. On the procedure:
(§3) Luciferase mRNA in vivo evaluation studies were performed in 6-8 week old female C57BL/6 mice (Charles River) 8-10 week old CD-1 (Harlan) mice (Charles River) according to guidelines established by an institutional animal care committee (ACC) and the Canadian Council on Animal Care (CCAC). Varying doses of mRNA-lipid nanoparticle were systemically administered by tail vein injection and animals euthanized at a specific time point (e.g., 4 hours) post-administration. Liver and spleen were collected in pre-weighed tubes, weights determined, immediately snap frozen in liquid nitrogen and stored at −80° C. until processing for analysis.
For liver, approximately 50 mg was dissected for analyses in a 2 mL FastPrep tubes (MP Biomedicals, Solon Ohio). ¼″ ceramic sphere (MP Biomedicals) was added to each tube and 500 μL of Glo Lysis Buffer—GLB (Promega, Madison Wis.) equilibrated to room temperature was added to liver tissue. Liver tissues were homogenized with the FastPrep24 instrument (MP Biomedicals) at 2×6.0 m/s for 15 seconds. Homogenate was incubated at room temperature for 5 minutes prior to a 1:4 dilution in GLB and assessed using SteadyGlo Luciferase assay system (Promega). Specifically, 50 μL of diluted tissue homogenate was reacted with 50 μL of SteadyGlo substrate, shaken for 10 seconds followed by 5 minute incubation and then quantitated using a CentroXS^3 LB 960 luminometer (Berthold Technologies, Germany). The amount of protein assayed was determined by using the BCA protein assay kit (Pierce, Rockford Ill.). Relative luminescence units (RLU) were then normalized to total μg protein assayed. To convert RLU to ng luciferase a standard curve was generated with QuantiLum Recombinant Luciferase (Promega). For a representative formulation having a combination of two cationic lipids, a four-hour time point was chosen for an efficacy evaluation of the lipid formulation.
(§4) The FLuc mRNA (L-6107) from Trilink Biotechnologies will express a luciferase protein, originally isolated from the firefly, Photinus pyralis. FLuc is commonly used in mammalian cell culture to measure both gene expression and cell viability. It emits bioluminescence in the presence of the substrate, luciferin. This capped and polyadenylated mRNA is fully substituted with 5-methylcytidine and pseudouridine.
LNP's were formulated by an in-line mixing process as described in Example 1. […] The size and polydispersity index data were generated using Malvern Nanosizer ZS. The diameters given are intensity weighted means. Encapsulation was determined using a fluorescent intercalating dye based assay (Ribogreen).

The subject of data set [4] is Photinus pyralis (firefly) luciferase mRNA expression in spleen. Description: Luciferase mRNA in vivo evaluation using LNP compositions, spleen. The settings on record: LNP 47.5:10:40.7:1.8, 1 mg/kg, mice. The procedure: as §3, §4, §2
The nature of data set [5]: Determination of pKa of formulated lipids (TNS fluorescence assay). Type of data set: physicochemical. The settings on record: lipids of Formula I, formulated in LNP cationic lipid/DSPC/cholesterol/PEG-lipid 50/10/38.5/1.5 mol % or cationic lipid alone. The procedure:
As described elsewhere, the pKa of formulated cationic lipids is correlated with the effectiveness of LNPs for delivery of nucleic acids (see Jayaraman et al, Angewandte Chemie, International Edition (2012), 51(34), 8529-8533; Semple et al, Nature Biotechnology 28, 172-176 (2010)). A representative preferred range of pKa is ˜5 to ˜7. […] Lipid nanoparticles comprising of cationic lipid/DSPC/cholesterol/PEG-lipid (50/10/38.5/1.5 mol %) or a cationic lipid alone in PBS at a concentration of 0.4 mM total lipid are prepared using the in-line process as described in Example 1. TNS was prepared as a 100 μM stock solution in distilled water. Vesicles were diluted to 24 μM lipid in 2 mL of buffered solutions containing 10 mM HEPES, 10 mM MES, 10 mM ammonium acetate, 130 mM NaCl, where the pH ranged from 2.5 to 11. An aliquot of the TNS solution was added to give a final concentration of 1 μM and following vortex mixing fluorescence intensity was measured at room temperature in a SLM Aminco Series 2 Luminescence Spectrophotometer using excitation and emission wavelengths of 321 nm and 445 nm. A sigmoidal best fit analysis was applied to the fluorescence data and the pKa was measured as the pH giving rise to half-maximal fluorescence intensity.

Where [6] appears, read: N/P 3:1, LNP cationic lipid/DSPC/Cholesterol/PEG-lipid 47.5:10:40.7:1.8.

For `CCCCCCCCC(CCCCCC)C(=O)OCCCCCCN(CCCCCCOC(=O)C(CCCCCC)CCCCCCCC)CCN(C)C` (stereo not shown) [Compound I-5], the PDI in data set [1] (N/P 3:1) turned out to be 0.072; in data set [1] (N/P 6:1), 0.028; in data set [1] (N/P 12:1) it was 0.026; in data set [1] (N/P 22:1), 0.039. Also, the Size in data set [1] (N/P 3:1) is 86 nm; in data set [1] (N/P 6:1) it was 81 nm; in data set [1] (N/P 12:1), 75 nm; in data set [1] (N/P 22:1), 81 nm. For the same compound, the Encapsulation in data set [2] (setting [6]) turned out to be 94%; in data set [2] (N/P 6:1, LNP 47.5:10:40.7:1.8), 96%; in data set [2] (N/P 12:1, LNP 47.5:10:40.7:1.8), 98%; in data set [2] (N/P 22:1, LNP 47.5:10:40.7:1.8) it was 99%. Besides, the “Liver Luc Activity” value is 7689 ng/g in data set [3] (N/P 3:1), 9509 ng/g in data set [3] (N/P 6:1), 12826 ng/g in data set [3] (N/P 12:1) and 14538 ng/g in data set [3] (N/P 22:1). The “Spleen Luc Activity” value in data set [4] (N/P 3:1) stood at 188 ng/g; in data set [4] (N/P 6:1), 236 ng/g; in data set [4] (N/P 12:1) it was 184 ng/g; in data set [4] (N/P 22:1), 247 ng/g.
As a reminder, the pKa is the negative logarithm of the acid dissociation constant. A lower pKa goes with a stronger acid or weaker base. `CCCCCCCCCCCCC(CCCCCCCCCC)C(=O)OCCCCCCN(CCCCCCOC(=O)C(CCCCCCCCCC)CCCCCCCCCC)CCN(C)C` (stereo not shown) [Compound I-39] displayed a pKa in data set [5] of 5.82.
With `CCCCCCCCC(=O)N(CCCN(C)C)C(CCCCCCCCC(=O)OCC(CCCC)CCCCCC)CCCCCCCCC(=O)OCC(CCCC)CCCCCC` (stereo not shown) [II-9], the PDI in data set [1] (N/P 3:1) is 0.054; in data set [1] (N/P 6:1), 0.033; in data set [1] (N/P 12:1), 0.014; in data set [1] (N/P 22:1), 0.017. In addition, the Size in data set [1] (N/P 3:1) is 94 nm; in data set [1] (N/P 6:1), 88 nm; in data set [1] (N/P 12:1), 84 nm; in data set [1] (N/P 22:1), 84 nm. Also, the Encapsulation in data set [2] (setting [6]) was 92%; in data set [2] (N/P 6:1, LNP 47.5:10:40.7:1.8), 95%; in data set [2] (N/P 12:1, LNP 47.5:10:40.7:1.8), 98%; in data set [2] (N/P 22:1, LNP 47.5:10:40.7:1.8), 98%. In addition, the “Liver Luc Activity” value was 6727 ng/g in data set [3] (N/P 3:1), 12209 ng/g in data set [3] (N/P 6:1), 18330 ng/g in data set [3] (N/P 12:1) and 12634 ng/g in data set [3] (N/P 22:1). For the same compound, the “Spleen Luc Activity” value amounted to 831 ng/g in data set [4] (N/P 3:1), 642 ng/g in data set [4] (N/P 6:1), 514 ng/g in data set [4] (N/P 12:1) and 439 ng/g in data set [4] (N/P 22:1).
On to `CCCCCCC(CCCC)C(=O)OCCCCCCCCCN(CCCO)CCCCCCCCCOC(=O)C(CCCC)CCCCCC` (stereo not shown) [III-45], for which the PDI in data set [1] (N/P 3:1) is listed as 0.089; in data set [1] (N/P 6:1) it was 0.068; in data set [1] (N/P 12:1) it was 0.074; in data set [1] (N/P 22:1) it was 0.083. The Size amounted to 87 nm in data set [1] (N/P 3:1), 74 nm in data set [1] (N/P 6:1), 65 nm in data set [1] (N/P 12:1) and 57 nm in data set [1] (N/P 22:1). In addition, the Encapsulation in data set [2] (setting [6]) came out at 75%; in data set [2] (N/P 6:1, LNP 47.5:10:40.7:1.8), 86%; in data set [2] (N/P 12:1, LNP 47.5:10:40.7:1.8), 91%; in data set [2] (N/P 22:1, LNP 47.5:10:40.7:1.8), 94%. Besides, the “Liver Luc Activity” value in data set [3] (N/P 3:1) came out at 13308 ng/g; in data set [3] (N/P 6:1) it was 15395 ng/g; in data set [3] (N/P 12:1), 16596 ng/g; in data set [3] (N/P 22:1) it was 16005 ng/g. Moreover, the “Spleen Luc Activity” value in data set [4] (N/P 3:1) is on record as 410 ng/g; in data set [4] (N/P 6:1) it was 356 ng/g; in data set [4] (N/P 12:1) it was 243 ng/g; in data set [4] (N/P 22:1), 353 ng/g.
